Measured values as given in patent publication US20090253709A1 (NATIONAL DEFENSE MEDICAL CENTER, priority 2008, published 2009).
Where two headings read alike, the source gives them in different places.

What was measured:
MTT assay in BJ1 cells = format: cell-based; conditions: human, hTERT-BJ1-PTERT(3.4)-SEAP cells, BJ1, read-out: MTT (Inhibition μM ± SD); for viability at 48 h, 1 µM: compound concentration 1 μM; for viability at 48 h, 10 µM: compound concentration 10 μM; for viability at 48 h, 100 µM: compound concentration 100 μM
Method: (§1) A total of 2×10^3 […] cells were seeded in the 96-well cell culture plate, and incubated with DMEM (GIBCO®)/glucose mixture and Medium 199 (GIBCO®)/10% FBS/1 mM sodium pyruvate (GIBCO®)/4 mM L-glutamine (GIBCO®) mixture at a ratio of 4:1 at 37° C. for 24 hours. […] After 48 hours of drug treatment, the cultured medium were collected for performing the analysis of SEAP activity. The cells were washed with 1×PBS once immediately, and the MTT assay was performed to compare the compounds with the relative toxicity or the influence to the proliferation and activity. Mitochondria is the place for cellular respiration, and there are many reductive reactions catalyzed by dehydrogenases. MTT is a water-soluble yellow compound, and the […] will be formed after reduction. This crystal can be dissolved in the organic solvent, and has high absorbance at the wavelength of 570 nm. The higher cellular activity or more cell numbers, the more generated crystal violets. Therefore, the cellular activity and cell number can be obtained by the MTT assay. MTT solution was prepared by dissolving MTT powder in PBS solution to achieve 5 mg/ml, filtrated and stored at 4° C. Lysis buffer contained 20% (w/v) of SDS in 50% of N,N-dimethylformamide (DMF, Riedel-deHaën). After the cells were incubated in the 96-well culture plate, the original medium was discarded, 100 μl of the fresh serum-free medium per well and 25 μl of MTT solution per well were added in respectively, and the cells were further incubated in the CO2 incubator at 37° C. for 4 hours. Then, 100 μl of lysis buffer per well was added in and incubated overnight in the CO2 incubator at 37° C. The absorbance at 570 nm was determined by the ELISA reader.

MTT assay in H1299 cells = format: cell-based; conditions: human, H1299 cells (H1299/PhTERT-driven SEAP reporter system), H1299, read-out: MTT (Inhibition μM ± SD); for viability at 24 h, 1 µM: compound concentration 1 μM; for viability at 24 h, 10 µM: compound concentration 10 μM; for viability at 24 h, 100 µM: compound concentration 100 μM
Method: as §1, with “H1299 is a non-small cell lung cancer cell line with telomerase activity. The cell extract of H1299 cell lines can be used for selecting the telomerase activity inhibitors in vitro and the telomerase activity-inhibited substances in vivo. H1299 cell line was incubated with RPMI 1640 medium supplemented with 10% of fetal bovine serum (FBS). A total” for “A total”, “ELISA reader. The selection of telomerase inhibitors of the anthraquinone compounds provided in the present invention was performed by the […]-driven SEAP system. SEAP is the communication gene in this drug selection model. The SEAP inhibition was shown as follows. […] Subsequently, the linear slope of absorbance to the measuring time was calculated, and the variance of absorbance at 405 nm per minute was represented and compared with the SEAP-producing result of drug-untreated H1299 cells. In addition, the influence of the cell-treated drug solution to the cellular proliferation and the drug toxicity to the cells were considered, and the cellular growth was evaluated by the MTT assay. The drug-treated cells were analyzed by the SEAP assay and the data analysis of MTT assay at the same time. Both results were compared so as to delete the influence of cell number or the activity to SEAP, and the dose-dependent phenomenon could be anticipated in the range of drug concentration designed by the laboratory. […] Since the chemically-synthetic drugs have colors thereon, the SEAP value of drug-treatment without cells was also determined to be the background value which was deducted while treating with the drugs. The candidate drug for inhibiting telomerase on the hTERT gene expression level was evaluated and anticipated.” for “ELISA reader.”

hTERT expression = experiment: SEAP assay in hTERT-BJ1-PTERT(3.4)-SEAP cells; format: cell-based; conditions: Homo sapiens, read-out: SEAP (Inhibition μM ± SD)
Method: A total of 2×10^3 hTERT-BJ1-PTERT(3.4)-SEAP cells were seeded in the 96-well cell culture plate, and incubated with DMEM (GIBCO®)/glucose mixture and Medium 199 (GIBCO®)/10% FBS/1 mM sodium pyruvate (GIBCO®)/4 mM L-glutamine (GIBCO®) mixture at a ratio of 4:1 at 37° C. for 24 hours. When the cells were attached in the bottom of the well, the seriously-diluted compounds with different concentrations ([…]) were treated with the cells for 48 hours, and the PTERT(3.4)-SEAP cells without drug treatment were being the control. After 48 hours of drug treatment, the cultured medium were collected for performing the analysis of SEAP activity. The cells were washed with 1×PBS once immediately, and the MTT assay was performed to compare the compounds with the relative toxicity or the influence to the proliferation and activity.
The cellular medium after the cellular incubation was transferred into the eppondorf tube, and the activity of endogeneous alkaline phosphatase was inactivated at 65° C. for 10 minutes. After centrification, the mixture was obtained by mixing 50 μl of the supernatant with the equal volume of the SEAP buffer. The mixture and the substrate (120 mM of p-nitrophenylphosphate) were preheated at 37° C. for 10 minutes respectively, and the mixture and the substrate were mixed at a ratio of 1:10 and reacted at 37° C. The absorbance of visible light at 405 nm was determined at the appropriate time intervals, and the enzymatic activity of SEAP was represented by the speed of the increasing absorbance at 405 nm.

[1] = BJ1, compound concentration 1 μM
[2] = BJ1, compound concentration 10 μM
[3] = BJ1, compound concentration 100 μM

| Compound | viability at 48 h, 1 µM (MTT assay in BJ1 cells) | viability at 48 h, 10 µM (MTT assay in BJ1 cells) | viability at 48 h, 100 µM (MTT assay in BJ1 cells) | viability at 24 h, 1 µM (MTT assay in H1299 cells) | viability at 24 h, 10 µM (MTT assay in H1299 cells) | viability at 24 h, 100 µM (MTT assay in H1299 cells) | melting point | activity at 1 µM (hTERT expression; [1]) | activity at 10 µM (hTERT expression; [2]) | activity at 100 µM (hTERT expression; [3]) | activity at 1 µM (hTERT expression) | activity at 10 µM (hTERT expression) | activity at 100 µM (hTERT expression) |
| --- | --- | --- | --- | --- | --- | --- | --- | --- | --- | --- | --- | --- | --- |
| O=C1c2ccc([N+](=O)[O-])cc2C(=O)c2cc([N+](=O)[O-])ccc21 [Compound 1, 2,7-dinitroanthraquinone] | 91 ± 2% | 91 ± 2% | 86 ± 3% | 97 ± 15% | 95 ± 8% | 69 ± 10% | 284 °C | 55 ± 21% | 60 ± 35% | 65 ± 23% | – | – | – |
| Nc1ccc2c(c1)C(=O)c1cc(N)ccc1C2=O [Compound 2, 2,7-Diaminoanthraquinone] | 95 ± 2% | 83 ± 1% | 80 ± 2% | 90 ± 17% | 80 ± 16% | 65 ± 10% | 342 °C | – | – | – | – | – | – |
| O=C(CN1CCCC1)Nc1ccc2c(c1)C(=O)c1cc(NC(=O)CN3CCCC3)ccc1C2=O [Compound 6, 2,7-Bis[2-(pyrrolidino)acetamido]anthraquinone] | 99 ± 2% | 60 ± 2% | 39 ± 1% | 99 ± 9% | 52 ± 13% | 23 ± 14% | 201 °C | – | – | – | – | – | – |
| CN(C)CC(=O)Nc1ccc2c(c1)C(=O)c1cc(NC(=O)CN(C)C)ccc1C2=O [Compound 8, 2,7-Bis[2-(dimethylamino)acetamido]anthraquinone] | 96 ± 3% | 45 ± 1% | 39 ± 1% | 92 ± 13% | 55 ± 9% | 15 ± 12% | – | – | – | – | 96 ± 1% | 44 ± 5% | 3 ± 13% |
| CCCNCC(=O)Nc1ccc2c(c1)C(=O)c1cc(NC(=O)CNCCC)ccc1C2=O [Compound 9, 2,7-Bis[2-(propylamino)acetamido]anthraquinone] | 96 ± 3% | 44% | 42 ± 1% | 89 ± 15% | 54 ± 11% | 14 ± 10% | 143 °C | – | – | – | – | – | – |
| O=C(CN1CCNCC1)Nc1ccc2c(c1)C(=O)c1cc(NC(=O)CN3CCNCC3)ccc1C2=O [Compound 12, 2,7-Bis[2-(piperazino)acetamido]anthraquinone] | 88 ± 2% | 85 ± 15% | 76 ± 2% | 88 ± 19% | 85 ± 13% | 88 ± 11% | 173 °C | – | – | – | – | – | – |
| O=C(CCCl)Nc1ccc2c(c1)C(=O)c1cc(NC(=O)CCCl)ccc1C2=O [Compound 15, 2,7-Bis(3-chloropropionamido)anthraquinone] | 77 ± 2% | 65 ± 1% | 39 ± 1% | 77 ± 13% | 44 ± 15% | 29 ± 11% | 281 °C | – | – | – | – | – | – |
| CCN(CC)CCC(=O)Nc1ccc2c(c1)C(=O)c1cc(NC(=O)CCN(CC)CC)ccc1C2=O [Compound 16, 2,7-Bis[3-(diethylamino)propionamido]anthraquinone] | 103 ± 2% | 55 ± 3% | 36 ± 1% | 106 ± 15% | 41 ± 20% | 1 ± 1% | – | 84 ± 5% | 49 ± 3% | 37 ± 5% | – | – | – |
| O=C(CCN1CCCC1)Nc1ccc2c(c1)C(=O)c1cc(NC(=O)CCN3CCCC3)ccc1C2=O [Compound 18, 2,7-Bis[3-(pyrrolidino)propionamido]anthraquinone] | 82 ± 4% | 68% | 39% | 87 ± 15% | 54 ± 7% | 12 ± 10% | – | – | 67 ± 16% | 109 ± 18% | – | – | – |
| CCCNCCC(=O)Nc1ccc2c(c1)C(=O)c1cc(NC(=O)CCNCCC)ccc1C2=O [Compound 21, 2,7-Bis[3-(propylamino)propionamido]anthraquinone] | 75 ± 1% | 65 ± 2% | 38 ± 2% | 80 ± 15% | 50 ± 6% | 13 ± 10% | – | – | 133 ± 48% | 217 ± 40% | – | – | – |
| CCCC(=O)Nc1ccc2c(c1)C(=O)c1cc(NC(=O)CCC)ccc1C2=O [Compound 28, 2,7-Bis(butyramido)anthraquinone] | 84 ± 2% | 51 ± 8% | 50 ± 6% | 93 ± 14% | 59 ± 13% | 40 ± 15% | 275 °C | – | – | – | – | – | – |
| O=C1c2ccc(NC(=O)C3CC3)cc2C(=O)c2cc(NC(=O)C3CC3)ccc21 [Compound 32, 2,7-Bis(cyclopropanecarbonamido)anthraquinone] | 60 ± 6% | 44 ± 10% | 47 ± 2% | 46 ± 14% | 36 ± 13% | 43 ± 15% | 352 °C | – | – | – | – | – | – |
